Non-standard residues stand in square brackets, D forms with d. Residues, ends and D or L forms follow the SMILES beside them. *: point of attachment. X1 = Cn1c(Br)c(Br)c(Br)c1C(=O)*; NMeL = CN[C@@H](CC(C)C)C(=O)O
Tests used:
[1] = test system: interaction between the programmed cell death protein PD-1 and its natural ligand PDL1; test: Cell-based assay of PD-1/PDL1 interaction; conditions: for %Inhibition at 1 × 10^−5 M (PD-1): final readout dependent on the interaction between PD-1 and PDL1; for impairment of PD-1/PDL1 interaction: final readout dependent on the interaction between the two proteins
A-549 = test: Cytotoxic activity against lung tumor cell line A-549; type: cell-based; conditions: A-549 (lung), human tumor cell line
HT-29 = test: Cytotoxic activity against colon tumor cell line HT-29; type: cell-based; conditions: HT-29 (colon), human tumor cell line
PSN-1 = test: Cytotoxic activity against pancreas tumor cell line PSN-1; type: cell-based; conditions: PSN-1 (pancreas), human tumor cell line
four cancer cell lines [2] = test: Cytotoxic activity, four cancer cell lines (summary); type: cell-based, human; conditions: four cancer cell lines: A-549, HT-29, MDA-MB-231, PSN-1
MDA-MB-231 = test: Cytotoxic activity against breast tumor cell line MDA-MB-231; type: cell-based; conditions: MDA-MB-231 (breast), human tumor cell line
topoisomerase I = test: Topoisomerase I inhibition; type: biochemical
four cancer cell lines [3] = conditions: cited for comparison with 1 and 2; cited from earlier work
Experimental: In summary, two new peptides bearing unprecedented halogenated moieties, haloirciniamide A (1) and seribunamide A (2), were isolated from a marine sponge belonging to the Irnicia genus, which was selected for further studies. The sample was collected around the Thousand Islands (Indonesia) by the Pharmamar expedition team in collaboration with the Research Center for Oceanography, Indonesian Institute of Sciences (RCO-LIPI). The planar structures of the novel compounds were determined by a combination of extensive NMR and HPLC-MS experiments. The absolute configuration was achieved by Marfey’s ...

Row | Molecule | %Inhibition at 1 × 10^−5 M (PD-1) [1] [%] | impairment of PD-1/PDL1 interaction [1] | GI50 (A-549) [µM] | GI50 (HT-29) [µM] | GI50 (PSN-1) [µM] | cytotoxic activity (four cancer cell lines [2]) | GI50 (MDA-MB-231) [µM] | %Inhibition at 1 × 10^−5 M (Top-I) (topoisomerase I; 1 × 10^−5 M) [%] | inhibition of topoisomerase I (topoisomerase I; 1.0 × 10^−5 M) | cytotoxic activity (words, comparison compound cyclocinamide B) (four cancer cell lines [3]) | cytotoxic activity (words, comparison compound gunungamide A) (four cancer cell lines [3])
1 | CN1C(=O)C[C@H](C(N)=O)NC(=O)[C@@H](O)CNC(=O)[C@H](CNC(=O)c2cc(Br)c(Br)[nH]2)NC(=O)[C@H](CN)NC(=O)C1Cc1cnc(Cl)[nH]1 (stereo partly drawn) [Compound 1, haloirciniamide A] | 0.3 | unable to impair the interaction | > 12 | > 12 | > 12 | not observed | > 12 | 3 | no inhibition of the enzyme |  | 
2 | CC[C@H](C)[C@H](NC(=O)c1c(Br)c(Br)c(Br)n1C)C(=O)N(C)[C@@H](CC(C)C)C(=O)N1CCC[C@H]1C(=O)N[C@@H](CCC(N)=O)C(=O)O [Compound 2, seribunamide A] (X1-I[NMeL]PQ-OH) | −3.5 | unable to impair the interaction | > 12 | > 12 | > 12 | not observed | > 12 |  |  |  | 
3 | cyclocinamide B |  |  |  |  |  |  |  |  |  | not observed | 
4 | gunungamide A |  |  |  |  |  |  |  |  |  |  | not observed
